The target of the assay is T1, GFP-tagged cIAP-2 (Homo sapiens, UniProt Q13489).
T1 construct: expressed in transfected cells
Description: GFP-tagged cIAP-2 degradation assay (loss of GFP signal). It is filed as cell-based. The settings on record: GFP-cIAP expressing melanoma cell line A375, treatment for two hours; read-out: IC50 for GFP-tagged cIAP-2 degradation. From the text: To evaluate the Smac-mimetic activity in cancer cell lines, we have developed intra-cellular green fluorescence protein (GFP)-tagged cIAP-1 and GFP-tagged cIAP-2 assays. […].

T1 sequence (Q13489 whole entry): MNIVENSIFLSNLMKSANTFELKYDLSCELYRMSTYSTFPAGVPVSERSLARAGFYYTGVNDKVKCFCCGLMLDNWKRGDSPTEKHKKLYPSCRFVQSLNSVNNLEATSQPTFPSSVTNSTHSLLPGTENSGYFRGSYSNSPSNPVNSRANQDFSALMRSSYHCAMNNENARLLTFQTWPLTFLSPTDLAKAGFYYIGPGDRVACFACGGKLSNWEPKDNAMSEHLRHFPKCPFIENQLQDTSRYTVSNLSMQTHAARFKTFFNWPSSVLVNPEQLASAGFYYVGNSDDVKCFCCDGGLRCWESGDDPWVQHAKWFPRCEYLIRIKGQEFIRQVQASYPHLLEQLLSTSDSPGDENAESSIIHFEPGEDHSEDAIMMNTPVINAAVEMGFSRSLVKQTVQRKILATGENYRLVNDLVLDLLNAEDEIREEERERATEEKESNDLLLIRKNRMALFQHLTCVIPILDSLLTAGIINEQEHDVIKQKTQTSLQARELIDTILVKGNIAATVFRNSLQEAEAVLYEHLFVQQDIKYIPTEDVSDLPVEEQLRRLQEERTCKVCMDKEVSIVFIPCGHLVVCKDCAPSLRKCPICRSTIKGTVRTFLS

In the case of `CC[C@H](NC(=O)[C@H](C)NC)C(=O)N1C[C@@H](O)C[C@H]1Cc1c(-c2[nH]c3cc(F)ccc3c2C[C@@H]2C[C@H](O)CN2C(=O)[C@H](CC)NC(=O)[C@H](C)NC)[nH]c2cc(F)ccc12` [Compound 15, birinapant], the DC50 turned out to be 150 nM.
